Molecules are shown by their SMILES. Positions of bridges follow the written chain, without caps; N, C: chain ends. Non-standard residues stand in square brackets, D forms with d. Residues, ends and D or L forms follow the SMILES beside them. ξ: configuration not given here. Bip = N[C@@H](Cc1ccc(-c2ccccc2)cc1)C(=O)O; Phe(3-Cl) = N[C@@H](Cc1cccc(Cl)c1)C(=O)O; 1Nal = N[C@@H](Cc1cccc2ccccc12)C(=O)O; NMeR = CN[C@@H](CCCNC(=N)N)C(=O)O; NMeF = CN[C@@H](Cc1ccccc1)C(=O)O; hArg = N=C(N)NCCCC[C@H](N)C(=O)O; ξW = NC(Cc1c[nH]c2ccccc12)C(=O)O; NMeA = CN[C@@H](C)C(=O)O; Orn = NCCC[C@H](N)C(=O)O; Abu = CC[C@H](N)C(=O)O; Dap = NC[C@H](N)C(=O)O; Sar = CNCC(=O)O

As usually defined, the IC50 is the concentration at which inhibition is half-maximal.

For this test, the target named is T1, human PD-1 (Jurkat-PD-1 cells) / PE-labeled human PD-L1-Ig (Homo sapiens, UniProt Q15116).
T1 construct: expressed in transfected cells; host or cells: Jurkat cell line over-expressing human PD-1
T1 sequence (Q15116 25-288): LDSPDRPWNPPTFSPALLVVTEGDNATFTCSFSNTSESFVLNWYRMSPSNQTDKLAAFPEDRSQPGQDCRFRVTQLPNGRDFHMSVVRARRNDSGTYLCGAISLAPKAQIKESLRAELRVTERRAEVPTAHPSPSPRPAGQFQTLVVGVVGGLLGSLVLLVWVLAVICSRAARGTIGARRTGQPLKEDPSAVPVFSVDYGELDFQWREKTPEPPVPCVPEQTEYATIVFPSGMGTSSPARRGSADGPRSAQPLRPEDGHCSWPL
Nature of the test: Jurkat-PD-1 Cell Binding High-Content Screening Assay (CBA); Jurkat hPD1-PDL1 assay. Conditions: Jurkat cell line over-expressing human PD-1; PE-labeled PD-L1-Ig 20 nM final; compound incubated 2 hours at 37° C.; read-out: Jurkat HPD1-PDL1 IC50. In short, it runs like this:
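Cell binding by imaging: Jurkat line stably over-expressing human PD-1, compound pre-exposure 2 h at 37° C, PE-conjugated PD-L1-Ig 20 nM final, medium DMEM containing 10% FCS.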
Consider `CC(C)C[C@@H]1NC(=O)[C@H](Cc2c[nH]c3ccccc23)NC(=O)[C@H](CC(=O)O)NC(=O)[C@H](Cc2ccc(O)cc2)NC(=O)[C@H](Cc2ccccc2)NC(=O)CSC[C@@H](C(=O)NCC(N)=O)NC(=O)[C@H](CC(N)=O)NC(=O)[C@H](C(C)C)NC(=O)[C@H](CC(C)C)NC(=O)[C@H](CC(N)=O)NC(=O)CN(C)C(=O)[C@H](C)N(C)C(=O)[C@H](C(C)C)NC(=O)[C@H](Cc2ccc(-c3ccccc3)cc2)NC1=O` [Example 1228] ({CH2CO}-FYDWL[Bip]V[NMeA][Sar]NLVNCG-NH2; thioether N-14), for which the IC50 stood at 720 nM. Under `CC(C)C[C@@H]1NC(=O)[C@H](CC(N)=O)NC(=O)CN(C)C(=O)[C@H](CCCNC(=N)N)NC(=O)[C@H](C(C)C)NC(=O)[C@H](Cc2ccc(-c3ccccc3)cc2)NC(=O)[C@H](C(C)C)NC(=O)C(Cc2c[nH]c3ccccc23)NC(=O)[C@H](CC(=O)O)NC(=O)[C@H](Cc2ccc(O)cc2)NC(=O)[C@H](Cc2ccccc2)NC(=O)CSC[C@@H](C(=O)NCC(N)=O)NC(=O)[C@H](CO)NC(=O)[C@H](C(C)C)NC1=O` (stereo partly shown) [Example 1229] ({CH2CO}-FYD[ξW]V[Bip]VR[Sar]NLVSCG-NH2; thioether N-14) stands 440 nM; under `CC(C)C[C@@H]1NC(=O)[C@H](CCCNC(=N)N)NC(=O)CN(C)C(=O)[C@H](C)N(C)C(=O)[C@H](C(C)C)NC(=O)[C@H](Cc2ccc(-c3ccccc3)cc2)NC(=O)[C@H](C(C)C)NC(=O)[C@H](Cc2c[nH]c3ccccc23)NC(=O)[C@H](CC(=O)O)NC(=O)[C@H](Cc2ccc(O)cc2)NC(=O)[C@H](Cc2ccccc2)NC(=O)CSC[C@@H](C(=O)NCC(N)=O)NC(=O)[C@H](CO)NC(=O)[C@H](C(C)C)NC1=O` [Example 1230] ({CH2CO}-FYDWV[Bip]V[NMeA][Sar]RLVSCG-NH2; thioether N-14), 60 nM. In the case of `CC(C)C[C@@H]1NC(=O)C(Cc2c[nH]c3ccccc23)NC(=O)[C@H](CC(=O)O)NC(=O)[C@H](Cc2ccc(O)cc2)NC(=O)[C@H](Cc2ccccc2)NC(=O)CSC[C@@H](C(=O)NCC(N)=O)NC(=O)[C@H](CO)NC(=O)[C@H](C(C)C)NC(=O)[C@H](CC(C)C)NC(=O)[C@H](CCCNC(=N)N)NC(=O)CN(C)C(=O)[C@H](C)N(C)C(=O)[C@H](CCCNC(=N)N)NC(=O)[C@H](Cc2ccc(-c3ccccc3)cc2)NC1=O` (stereo partly shown) [Example 1231] ({CH2CO}-FYD[ξW]L[Bip]R[NMeA][Sar]RLVSCG-NH2; thioether N-14), the IC50 amounted to 900 nM.

Turning to `CC(C)C[C@@H]1NC(=O)[C@H](Cc2c[nH]c3ccccc23)NC(=O)[C@H](CC(=O)O)NC(=O)[C@H](Cc2ccc(O)cc2)NC(=O)[C@H](Cc2ccccc2)NC(=O)CSC[C@@H](C(=O)NCC(N)=O)NC(=O)[C@H](CO)NC(=O)[C@H](C(C)C)NC(=O)[C@H](CC(C)C)NC(=O)[C@H](C(C)C)NC(=O)CN(C)C(=O)[C@H](C)N(C)C(=O)[C@H](CCCNC(=N)N)NC(=O)[C@H](Cc2ccc(-c3ccccc3)cc2)NC1=O` [Example 1232] ({CH2CO}-FYDWL[Bip]R[NMeA][Sar]VLVSCG-NH2; thioether N-14), the IC50 was found to be 330 nM. The result for `CC[C@@H]1NC(=O)[C@H](Cc2ccc(-c3ccccc3)cc2)NC(=O)[C@H](CC(C)C)NC(=O)[C@H](Cc2c[nH]c3ccccc23)NC(=O)[C@H](CC(=O)O)NC(=O)[C@H](Cc2ccc(O)cc2)NC(=O)[C@H](Cc2ccccc2)NC(=O)CSC[C@@H](C(=O)NCC(N)=O)NC(=O)[C@H](CO)NC(=O)[C@H](C(C)C)NC(=O)[C@H](CC(C)C)NC(=O)[C@H](CCCNC(=N)N)NC(=O)CN(C)C(=O)[C@H](CCCNC(=N)N)N(C)C1=O` [Example 1234] ({CH2CO}-FYDWL[Bip][Abu][NMeR][Sar]RLVSCG-NH2; thioether N-14) reads 290 nM. Under `CC(C)C[C@@H]1NC(=O)[C@H](C(C)C)NC(=O)CN(C)C(=O)[C@H](C)N(C)C(=O)[C@H](C(C)C)NC(=O)[C@H](Cc2ccc(-c3ccccc3)cc2)NC(=O)[C@H](Cc2ccc(O)cc2)NC(=O)[C@H](Cc2c[nH]c3ccccc23)NC(=O)[C@H](CC(=O)O)NC(=O)[C@H](Cc2ccc(O)cc2)NC(=O)[C@H](Cc2ccccc2)NC(=O)CSC[C@@H](C(=O)NCC(N)=O)NC(=O)[C@H](CO)NC(=O)[C@H](C(C)C)NC1=O` [Example 1235] ({CH2CO}-FYDWY[Bip]V[NMeA][Sar]VLVSCG-NH2; thioether N-14) stands 110 nM. For the compound `CC(C)C[C@@H]1NC(=O)[C@H](CCCNC(=N)N)NC(=O)CN(C)C(=O)[C@H](C)N(C)C(=O)[C@H](C(C)C)NC(=O)[C@H](Cc2ccc(-c3ccccc3)cc2)NC(=O)[C@H](Cc2ccc(O)cc2)NC(=O)[C@H](Cc2c[nH]c3ccccc23)NC(=O)[C@H](CC(=O)O)NC(=O)[C@H](Cc2ccc(O)cc2)NC(=O)[C@H](Cc2ccccc2)NC(=O)CSC[C@@H](C(=O)NCC(N)=O)NC(=O)[C@H](CO)NC(=O)[C@H](C(C)C)NC1=O` [Example 1236] ({CH2CO}-FYDWY[Bip]V[NMeA][Sar]RLVSCG-NH2; thioether N-14), the IC50 is 440 nM.

For the compound `CC(C)C[C@@H]1NC(=O)[C@H](Cc2c[nH]c3ccccc23)NC(=O)[C@H](CC(=O)O)NC(=O)[C@H](Cc2ccc(O)cc2)NC(=O)[C@H](Cc2ccccc2)NC(=O)CSC[C@@H](C(=O)NCC(N)=O)NC(=O)[C@H](CO)NC(=O)[C@H](C(C)C)NC(=O)[C@H](CC(C)C)NC(=O)[C@H](CCCNC(=N)N)NC(=O)CN(C)C(=O)[C@H](C)N(C)C(=O)[C@H](CC(=O)O)NC(=O)[C@H](Cc2ccc(-c3ccccc3)cc2)NC1=O` [Example 1237] ({CH2CO}-FYDWL[Bip]D[NMeA][Sar]RLVSCG-NH2; thioether N-14), the IC50 came out at 520 nM. The result for `CC(C)C[C@@H]1NC(=O)[C@H](CCCNC(=N)N)NC(=O)[C@H](Cc2ccccc2)N(C)C(=O)[C@H](C)N(C)C(=O)[C@H](CCCNC(=N)N)NC(=O)[C@H](Cc2ccc(-c3ccccc3)cc2)NC(=O)[C@H](C(C)C)NC(=O)[C@H](Cc2c[nH]c3ccccc23)NC(=O)[C@H](CC(=O)O)NC(=O)[C@H](Cc2ccccc2)NC(=O)[C@H](Cc2ccccc2)NC(=O)CSC[C@@H](C(=O)NCC(N)=O)NC(=O)[C@H](CO)NC(=O)[C@H](C(C)C)NC1=O` [Example 1238] ({CH2CO}-FFDWV[Bip]R[NMeA][NMeF]RLVSCG-NH2; thioether N-14) reads 170 nM; that for `CC(C)C[C@@H]1NC(=O)[C@H](C(C)C)NC(=O)[C@H](Cc2ccccc2)N(C)C(=O)[C@H](C)N(C)C(=O)[C@H](CCCNC(=N)N)NC(=O)[C@H](Cc2ccc(-c3ccccc3)cc2)NC(=O)[C@H](C(C)C)NC(=O)[C@H](Cc2c[nH]c3ccccc23)NC(=O)[C@H](CC(=O)O)NC(=O)[C@H](Cc2ccc(O)cc2)NC(=O)[C@H](Cc2ccccc2)NC(=O)CSC[C@@H](C(=O)NCC(N)=O)NC(=O)[C@H](CO)NC(=O)[C@H](C(C)C)NC1=O` [Example 1239] ({CH2CO}-FYDWV[Bip]R[NMeA][NMeF]VLVSCG-NH2; thioether N-14), 110 nM. With `CC(C)C[C@@H]1NC(=O)[C@H](CCCNC(=N)N)NC(=O)[C@H](Cc2ccccc2)N(C)C(=O)[C@H](C)N(C)C(=O)[C@H](CCCNC(=N)N)NC(=O)[C@H](Cc2ccc(-c3ccccc3)cc2)NC(=O)[C@H](C(C)C)NC(=O)[C@H](Cc2cccc3ccccc23)NC(=O)[C@H](CC(=O)O)NC(=O)[C@H](Cc2ccc(O)cc2)NC(=O)[C@H](Cc2ccccc2)NC(=O)CSC[C@@H](C(=O)NCC(N)=O)NC(=O)[C@H](CO)NC(=O)[C@H](C(C)C)NC1=O` [Example 1240] ({CH2CO}-FYD[1Nal]V[Bip]R[NMeA][NMeF]RLVSCG-NH2; thioether N-14), the IC50 worked out at 170 nM. Under `CC(C)C[C@@H]1NC(=O)[C@H](CCCNC(=N)N)NC(=O)[C@H](Cc2ccccc2)N(C)C(=O)[C@H](C)N(C)C(=O)[C@H](CCCNC(=N)N)NC(=O)[C@H](Cc2ccc(-c3ccccc3)cc2)NC(=O)[C@H](C(C)C)NC(=O)[C@H](Cc2cccc(Cl)c2)NC(=O)[C@H](CC(=O)O)NC(=O)[C@H](Cc2ccc(O)cc2)NC(=O)[C@H](Cc2ccccc2)NC(=O)CSC[C@@H](C(=O)NCC(N)=O)NC(=O)[C@H](CO)NC(=O)[C@H](C(C)C)NC1=O` [Example 1241] ({CH2CO}-FYD[Phe(3-Cl)]V[Bip]R[NMeA][NMeF]RLVSCG-NH2; thioether N-14) stands 270 nM; under `CC(C)C[C@@H]1NC(=O)[C@H](CCCNC(=N)N)NC(=O)[C@H](Cc2ccccc2)N(C)C(=O)[C@H](C)N(C)C(=O)[C@H](CN)NC(=O)[C@H](Cc2ccc(-c3ccccc3)cc2)NC(=O)[C@H](C(C)C)NC(=O)[C@H](Cc2c[nH]c3ccccc23)NC(=O)[C@H](CC(=O)O)NC(=O)[C@H](Cc2ccc(O)cc2)NC(=O)[C@H](Cc2ccccc2)NC(=O)CSC[C@@H](C(=O)NCC(N)=O)NC(=O)[C@H](CO)NC(=O)[C@H](C(C)C)NC1=O` [Example 1242] ({CH2CO}-FYDWV[Bip][Dap][NMeA][NMeF]RLVSCG-NH2; thioether N-14), 240 nM; under `CC(C)C[C@@H]1NC(=O)[C@H](CCCNC(=N)N)NC(=O)[C@H](Cc2ccccc2)N(C)C(=O)[C@H](C)N(C)C(=O)[C@H](CCCN)NC(=O)[C@H](Cc2ccc(-c3ccccc3)cc2)NC(=O)[C@H](C(C)C)NC(=O)[C@H](Cc2c[nH]c3ccccc23)NC(=O)[C@H](CC(=O)O)NC(=O)[C@H](Cc2ccc(O)cc2)NC(=O)[C@H](Cc2ccccc2)NC(=O)CSC[C@@H](C(=O)NCC(N)=O)NC(=O)[C@H](CO)NC(=O)[C@H](C(C)C)NC1=O` [Example 1243] ({CH2CO}-FYDWV[Bip][Orn][NMeA][NMeF]RLVSCG-NH2; thioether N-14), 60 nM.

Regarding `CC(C)C[C@@H]1NC(=O)[C@H](CCCNC(=N)N)NC(=O)[C@H](Cc2ccccc2)N(C)C(=O)[C@H](C)N(C)C(=O)[C@H](CCCCNC(=N)N)NC(=O)[C@H](Cc2ccc(-c3ccccc3)cc2)NC(=O)[C@H](C(C)C)NC(=O)[C@H](Cc2c[nH]c3ccccc23)NC(=O)[C@H](CC(=O)O)NC(=O)[C@H](Cc2ccc(O)cc2)NC(=O)[C@H](Cc2ccccc2)NC(=O)CSC[C@@H](C(=O)NCC(N)=O)NC(=O)[C@H](CO)NC(=O)[C@H](C(C)C)NC1=O` [Example 1244] ({CH2CO}-FYDWV[Bip][hArg][NMeA][NMeF]RLVSCG-NH2; thioether N-14), the IC50 turned out to be 190 nM.

These data come from patent US20240360178A1, “MACROCYCLIC IMMUNOMODULATORS” (Bristol-Myers Squibb Company, priority 2021, published 2024).
